Literature values, collected in US20200061095A1, “Compounds for the Treatment of Systemic Insulin Resistance Disorders and the Use Thereof” (Galectin Sciences, LLC, priority 2017, published 2020).

What was measured:
Galectin 3 = Galectin 3 (Homo sapiens, UniProt P17931); conditions: reported
lung fibrosis = conditions: pulmonary administration, intra-tracheal instillation or nebulizers

Chain of Galectin 3 (P17931 whole entry, species assumed): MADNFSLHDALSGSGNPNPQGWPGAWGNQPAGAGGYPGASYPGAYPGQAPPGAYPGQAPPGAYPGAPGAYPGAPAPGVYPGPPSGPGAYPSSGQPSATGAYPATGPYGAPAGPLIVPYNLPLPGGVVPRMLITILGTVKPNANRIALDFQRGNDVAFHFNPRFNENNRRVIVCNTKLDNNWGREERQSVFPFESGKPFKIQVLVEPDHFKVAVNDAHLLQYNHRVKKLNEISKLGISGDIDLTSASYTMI

binding to Galectin 3 (Galectin 3): bind to Galectin 3
SMILES: OC[C@H]1O[C@@H](S[C@@H]2O[C@H](CO)[C@H](O)[C@H](n3cc(-c4cccc(F)c4)nn3)[C@H]2O)[C@H](O)[C@@H](n2cc(-c3cccc(F)c3)nn2)[C@H]1O [TD-139]
efficacy in mouse model of lung fibrosis (lung fibrosis): effective
